Tests used:
Assay in all cases: KAM-matrix competition in K562 lysate;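 for 0.001 uM KAM: median log10 fold change of treatment over DMSO control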;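 for 0.01 uM KAM: median log10 fold change of treatment over DMSO control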;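 for 0.1 uM KAM: median log10 fold change of treatment over DMSO control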;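 for 1 uM KAM: median log10 fold change of treatment over DMSO control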;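 for 10 uM KAM: median log10 fold change of treatment over DMSO control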
Format in all cases: binding
[1] = target: T1, PTK2B (Homo sapiens, UniProt Q14289)
T1 construct: endogenous in cells; host or cells: K562
Method: (§1) Supplement 12953_2017_125_MOESM1_ESM.zip/MS_Supp Info.xlsx, sheet "KAM" | column: 10 uM KAM; 1 uM KAM; 0.1 uM KAM; 0.01 uM KAM; 0.001 uM KAM; RB50

[2] = target: T2, ARAF (Homo sapiens, UniProt P10398);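 for 0.001 uM KAM: median log10 fold change of treatment over DMSO control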;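 for 0.01 uM KAM: median log10 fold change of treatment over DMSO control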;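 for 0.1 uM KAM: median log10 fold change of treatment over DMSO control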;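 for 1 uM KAM: median log10 fold change of treatment over DMSO control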;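 for 10 uM KAM: median log10 fold change of treatment over DMSO control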
T2 construct: endogenous in cells; host or cells: K562
T2 sequence (P10398 1-606): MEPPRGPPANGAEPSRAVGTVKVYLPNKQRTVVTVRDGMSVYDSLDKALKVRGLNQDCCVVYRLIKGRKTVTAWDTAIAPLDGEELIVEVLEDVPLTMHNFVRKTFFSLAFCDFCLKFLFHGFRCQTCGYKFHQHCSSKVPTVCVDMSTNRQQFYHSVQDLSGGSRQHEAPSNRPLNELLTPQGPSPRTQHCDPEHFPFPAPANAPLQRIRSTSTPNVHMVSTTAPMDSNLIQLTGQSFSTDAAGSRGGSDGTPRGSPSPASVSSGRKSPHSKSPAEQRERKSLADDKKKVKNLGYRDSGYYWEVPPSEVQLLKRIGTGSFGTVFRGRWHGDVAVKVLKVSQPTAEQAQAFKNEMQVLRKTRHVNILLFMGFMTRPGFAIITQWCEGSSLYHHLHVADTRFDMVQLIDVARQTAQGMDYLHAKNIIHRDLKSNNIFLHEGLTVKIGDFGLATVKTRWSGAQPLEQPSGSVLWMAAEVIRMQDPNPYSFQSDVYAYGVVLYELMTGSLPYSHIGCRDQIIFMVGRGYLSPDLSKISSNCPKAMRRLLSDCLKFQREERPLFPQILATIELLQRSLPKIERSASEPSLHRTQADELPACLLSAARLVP
Method: as §1

[3] = target: LIMK1 (Homo sapiens, UniProt P53667);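 for 0.001 uM KAM: median log10 fold change of treatment over DMSO control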;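 for 0.01 uM KAM: median log10 fold change of treatment over DMSO control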;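 for 0.1 uM KAM: median log10 fold change of treatment over DMSO control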;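 for 1 uM KAM: median log10 fold change of treatment over DMSO control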;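 for 10 uM KAM: median log10 fold change of treatment over DMSO control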
Method: as §1

[4] = target: T3, PHKG1 (Homo sapiens, UniProt Q16816)
T3 construct: endogenous in cells; host or cells: K562
Method: as §1

[5] = target: T4, LYN (Homo sapiens, UniProt P07948)
T4 construct: endogenous in cells; host or cells: K562
Method: as §1

[6] = target: T5, CAMK4 (Homo sapiens, UniProt Q16566);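 for 0.001 uM KAM: median log10 fold change of treatment over DMSO control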;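 for 0.01 uM KAM: median log10 fold change of treatment over DMSO control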;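 for 0.1 uM KAM: median log10 fold change of treatment over DMSO control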;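 for 1 uM KAM: median log10 fold change of treatment over DMSO control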;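 for 10 uM KAM: median log10 fold change of treatment over DMSO control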
T5 construct: endogenous in cells; host or cells: K562
T5 sequence (Q16566 1-473): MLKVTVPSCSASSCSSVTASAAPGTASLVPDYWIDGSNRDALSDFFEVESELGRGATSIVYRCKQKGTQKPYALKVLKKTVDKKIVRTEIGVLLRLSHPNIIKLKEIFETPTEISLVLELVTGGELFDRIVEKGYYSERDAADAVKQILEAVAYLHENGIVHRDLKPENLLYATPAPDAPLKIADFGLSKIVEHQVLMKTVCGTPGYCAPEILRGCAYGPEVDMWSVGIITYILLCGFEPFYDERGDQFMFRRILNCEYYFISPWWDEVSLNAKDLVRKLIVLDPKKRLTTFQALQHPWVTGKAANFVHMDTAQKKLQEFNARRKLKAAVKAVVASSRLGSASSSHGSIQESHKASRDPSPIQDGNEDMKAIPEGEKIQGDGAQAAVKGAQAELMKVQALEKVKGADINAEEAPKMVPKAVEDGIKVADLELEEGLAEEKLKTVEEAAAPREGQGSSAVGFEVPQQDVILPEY
Method: as §1

[7] = target: T6, MAP4K3 (Homo sapiens, UniProt Q8IVH8)
T6 construct: endogenous in cells; host or cells: K562
T6 sequence (Q8IVH8 1-894): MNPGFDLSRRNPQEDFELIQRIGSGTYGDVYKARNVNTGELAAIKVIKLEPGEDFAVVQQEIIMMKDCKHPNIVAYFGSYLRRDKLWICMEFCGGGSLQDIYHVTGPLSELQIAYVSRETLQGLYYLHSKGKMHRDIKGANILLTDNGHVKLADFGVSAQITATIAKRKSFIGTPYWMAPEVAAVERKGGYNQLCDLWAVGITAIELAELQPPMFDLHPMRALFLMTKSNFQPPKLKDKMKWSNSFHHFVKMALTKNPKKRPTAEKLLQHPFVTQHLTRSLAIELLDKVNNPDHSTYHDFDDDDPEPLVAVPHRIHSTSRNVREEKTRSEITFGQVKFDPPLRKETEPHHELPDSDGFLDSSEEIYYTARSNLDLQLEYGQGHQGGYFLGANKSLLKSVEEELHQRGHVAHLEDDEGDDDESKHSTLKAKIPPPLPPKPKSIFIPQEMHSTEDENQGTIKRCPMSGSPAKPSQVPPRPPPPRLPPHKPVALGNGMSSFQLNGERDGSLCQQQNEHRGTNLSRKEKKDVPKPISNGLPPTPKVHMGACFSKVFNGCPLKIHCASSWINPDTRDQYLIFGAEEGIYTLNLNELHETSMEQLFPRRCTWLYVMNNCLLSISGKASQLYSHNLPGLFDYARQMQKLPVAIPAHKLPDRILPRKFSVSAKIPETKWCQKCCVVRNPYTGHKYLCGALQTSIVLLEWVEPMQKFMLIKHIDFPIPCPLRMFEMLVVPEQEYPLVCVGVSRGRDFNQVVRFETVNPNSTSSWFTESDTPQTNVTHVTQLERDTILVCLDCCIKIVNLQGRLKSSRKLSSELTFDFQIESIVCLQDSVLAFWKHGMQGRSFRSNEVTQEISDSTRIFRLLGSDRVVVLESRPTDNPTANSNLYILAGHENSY
Method: as §1

[8] = read-out: RB50 (the source's name)
[9] = KAM 0.001-10 uM, read-out: RB50 (the source's name)

T3 sequence (Q16816 whole entry): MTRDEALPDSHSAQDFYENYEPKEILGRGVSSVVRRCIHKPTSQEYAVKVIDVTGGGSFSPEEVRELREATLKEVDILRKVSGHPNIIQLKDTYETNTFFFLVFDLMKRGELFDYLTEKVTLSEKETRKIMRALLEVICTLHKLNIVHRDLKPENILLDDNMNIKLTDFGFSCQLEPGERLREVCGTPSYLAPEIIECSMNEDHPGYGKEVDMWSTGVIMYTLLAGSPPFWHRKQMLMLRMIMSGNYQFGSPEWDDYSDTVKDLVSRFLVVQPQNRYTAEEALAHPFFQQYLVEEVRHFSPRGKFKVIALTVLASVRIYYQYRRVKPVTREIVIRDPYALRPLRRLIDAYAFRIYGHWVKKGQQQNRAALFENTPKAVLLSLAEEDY
T4 sequence (P07948 whole entry): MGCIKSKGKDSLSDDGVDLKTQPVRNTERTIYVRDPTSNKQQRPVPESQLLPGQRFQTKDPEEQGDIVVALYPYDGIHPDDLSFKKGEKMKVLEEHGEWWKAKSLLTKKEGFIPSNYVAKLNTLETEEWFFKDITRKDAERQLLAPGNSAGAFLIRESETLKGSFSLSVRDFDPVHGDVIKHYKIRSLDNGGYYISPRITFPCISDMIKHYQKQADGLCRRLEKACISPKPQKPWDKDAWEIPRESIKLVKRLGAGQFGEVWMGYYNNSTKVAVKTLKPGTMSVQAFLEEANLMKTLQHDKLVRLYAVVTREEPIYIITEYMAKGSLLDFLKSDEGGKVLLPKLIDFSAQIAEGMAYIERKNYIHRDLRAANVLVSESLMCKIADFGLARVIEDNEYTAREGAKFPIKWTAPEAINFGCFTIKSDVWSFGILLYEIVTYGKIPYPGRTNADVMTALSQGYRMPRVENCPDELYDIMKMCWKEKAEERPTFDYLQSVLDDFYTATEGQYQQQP
Sequence of LIMK1 (P53667 whole entry): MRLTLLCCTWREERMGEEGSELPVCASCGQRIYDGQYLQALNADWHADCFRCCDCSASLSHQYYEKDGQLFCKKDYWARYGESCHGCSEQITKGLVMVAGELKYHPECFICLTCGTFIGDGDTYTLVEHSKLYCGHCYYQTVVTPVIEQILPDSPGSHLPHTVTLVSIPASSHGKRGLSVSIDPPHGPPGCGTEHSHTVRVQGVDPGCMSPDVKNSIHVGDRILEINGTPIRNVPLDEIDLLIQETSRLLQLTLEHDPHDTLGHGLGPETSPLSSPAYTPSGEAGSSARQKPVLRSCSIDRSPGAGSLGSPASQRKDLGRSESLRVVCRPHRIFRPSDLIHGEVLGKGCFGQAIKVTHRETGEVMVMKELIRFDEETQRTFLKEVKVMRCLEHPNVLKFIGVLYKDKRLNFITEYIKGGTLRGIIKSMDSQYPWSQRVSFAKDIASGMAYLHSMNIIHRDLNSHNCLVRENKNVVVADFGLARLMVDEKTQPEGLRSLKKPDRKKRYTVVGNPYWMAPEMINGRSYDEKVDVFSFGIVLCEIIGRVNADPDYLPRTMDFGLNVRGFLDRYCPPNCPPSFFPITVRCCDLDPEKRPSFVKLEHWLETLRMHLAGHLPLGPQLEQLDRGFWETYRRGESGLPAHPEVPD
T1 sequence (Q14289 whole entry): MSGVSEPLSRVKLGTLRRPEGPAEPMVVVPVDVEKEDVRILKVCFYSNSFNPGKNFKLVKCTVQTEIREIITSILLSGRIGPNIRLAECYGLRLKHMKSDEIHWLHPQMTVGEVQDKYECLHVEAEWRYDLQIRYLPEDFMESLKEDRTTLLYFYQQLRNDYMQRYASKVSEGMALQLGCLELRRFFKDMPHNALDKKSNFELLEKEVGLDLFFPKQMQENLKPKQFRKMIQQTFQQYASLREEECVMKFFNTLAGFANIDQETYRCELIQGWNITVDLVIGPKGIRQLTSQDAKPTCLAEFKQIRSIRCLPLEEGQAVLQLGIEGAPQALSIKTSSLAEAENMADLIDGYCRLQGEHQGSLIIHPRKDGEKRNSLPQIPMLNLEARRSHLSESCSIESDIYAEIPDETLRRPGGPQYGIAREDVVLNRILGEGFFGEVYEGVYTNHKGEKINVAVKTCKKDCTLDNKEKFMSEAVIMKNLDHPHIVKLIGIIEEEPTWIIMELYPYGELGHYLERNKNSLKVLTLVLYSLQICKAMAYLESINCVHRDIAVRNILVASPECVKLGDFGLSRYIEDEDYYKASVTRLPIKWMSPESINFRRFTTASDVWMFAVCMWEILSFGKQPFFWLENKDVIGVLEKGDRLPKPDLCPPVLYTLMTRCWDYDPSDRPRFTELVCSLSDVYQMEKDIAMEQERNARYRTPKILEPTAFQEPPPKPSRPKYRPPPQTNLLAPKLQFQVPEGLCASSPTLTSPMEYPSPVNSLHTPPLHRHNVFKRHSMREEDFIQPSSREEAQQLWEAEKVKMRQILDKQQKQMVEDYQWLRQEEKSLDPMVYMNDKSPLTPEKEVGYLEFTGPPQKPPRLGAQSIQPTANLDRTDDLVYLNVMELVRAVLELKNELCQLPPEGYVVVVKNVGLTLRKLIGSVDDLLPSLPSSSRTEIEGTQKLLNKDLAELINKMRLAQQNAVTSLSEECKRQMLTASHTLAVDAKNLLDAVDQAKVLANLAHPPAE

Compound: N#CCc1ccc(Nc2nc(NCCCN)cc(Nc3cc(C4CC4)[nH]n3)n2)cc1 [KAM]
- median Log10 fold change ([1]; 0.001 uM KAM): -0.01732
- median Log10 fold change ([1]; 0.01 uM KAM): -0.009714
- median Log10 fold change ([1]; 0.1 uM KAM): -0.1905
- median Log10 fold change ([1]; 1 uM KAM): -0.4119
- median Log10 fold change ([1]; 10 uM KAM): -0.5329
- IC50 [1, 8]: 460 nM
- IC50 [2, 9]: > 10000 nM
- 0.001 uM KAM ([2]; relative to 0 uM KAM = 0): -0.04442
- 0.01 uM KAM ([2]; relative to 0 uM KAM = 0): -0.008723
- 0.1 uM KAM ([2]; relative to 0 uM KAM = 0): -0.09412
- 1 uM KAM ([2]; relative to 0 uM KAM = 0): -0.1283
- 10 uM KAM ([2]; relative to 0 uM KAM = 0): -0.1374
- IC50 [3, 9]: > 10000 nM
- 0.001 uM KAM ([3]; relative to 0 uM KAM = 0): -0.03519
- 0.01 uM KAM ([3]; relative to 0 uM KAM = 0): -0.04768
- 0.1 uM KAM ([3]; relative to 0 uM KAM = 0): -0.0434
- 1 uM KAM ([3]; relative to 0 uM KAM = 0): 0.03552
- 10 uM KAM ([3]; relative to 0 uM KAM = 0): -0.3303
- median Log10 fold change ([4]; 0.001 uM KAM): -0.0673
- median Log10 fold change ([4]; 0.01 uM KAM): -0.04082
- median Log10 fold change ([4]; 0.1 uM KAM): -0.2109
- median Log10 fold change ([4]; 1 uM KAM): -0.4403
- median Log10 fold change ([4]; 10 uM KAM): -0.5431
- IC50 [4, 8]: 329 nM
- median Log10 fold change ([5]; 0.001 uM KAM): -0.01474
- median Log10 fold change ([5]; 0.01 uM KAM): -0.009336
- median Log10 fold change ([5]; 0.1 uM KAM): -0.1214
- median Log10 fold change ([5]; 1 uM KAM): -0.4299
- median Log10 fold change ([5]; 10 uM KAM): -0.513
- IC50 [5, 8]: 601 nM
- IC50 [6, 9]: > 10000 nM
- 0.001 uM KAM ([6]; relative to 0 uM KAM = 0): -0.0432
- 0.01 uM KAM ([6]; relative to 0 uM KAM = 0): 0.002565
- 0.1 uM KAM ([6]; relative to 0 uM KAM = 0): 0.008768
- 1 uM KAM ([6]; relative to 0 uM KAM = 0): 0.00582
- 10 uM KAM ([6]; relative to 0 uM KAM = 0): -0.03437
- median Log10 fold change ([7]; 0.001 uM KAM): -0.00532
- median Log10 fold change ([7]; 0.01 uM KAM): -0.01342
- median Log10 fold change ([7]; 0.1 uM KAM): -0.1612
- median Log10 fold change ([7]; 1 uM KAM): -0.436
- median Log10 fold change ([7]; 10 uM KAM): -0.5629
- IC50 [7, 8]: 472 nM

— publication PMC5513037, “Examining the influence of specificity ligands and ATP-competitive ligands on the overall effectiveness of bivalent kinase inhibitors” (Proteome Science, 2017)
